Literature values, collected in patent US11877993B1, “Gamma-hydroxybutyrate salts for the treatment of psychological disorders” (priority 2021, dated 2024).

System: patients with severe PTSD
Settings: MDMA-assisted therapy

Compound: CNC(C)Cc1ccc2c(c1)OCO2 (stereo not drawn) [MDMA, 3,4-methylenedioxymethamphetamine]
- Tolerability (individuals with severe PTSD, even with comorbidities): well-tolerated
- Attenuation in CAPS-5 score compared with placebo, effect size d (severe PTSD, P<0.0001): 0.91
- Decrease of SDS total score, effect size d (severe PTSD, P=0.0116): 0.43
